The supplement of paper PMC8633005

Tests used:
Assay in all cases: drug sensitivity score (DSS) (DSS (unitless, 0-50 scale)); higher = more sensitive (stronger viability inhibition); extreme values may be limits of the assay
Details in all cases: 72 h; culture: 2D
[1] = tested on: Bowes
How it was run: (§1)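 A 527-compound oncology library was screened in 384-well plates against melanoma cell lines and patient-derived melanoma cultures grown in 2D, the cultures at 1000–1500 cells per well. Each compound, in DMSO or water, was applied at five concentrations over a 10,000-fold range and incubated for 72 h at 37 °C before CellTiter-Glo luminescence readout of viability. A drug sensitivity score, a modified area-under-curve measure, was calculated from curves fitted in the in-house Breeze software.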

[2] = tested on: WM165
How it was run: as §1

[3] = tested on: FM-MEL-2
How it was run: as §1

[4] = tested on: SK-MEL-28
How it was run: as §1

[5] = tested on: WM852
How it was run: as §1

[6] = tested on: SK-MEL-2
How it was run: as §1

[7] = tested on: FM-MEL-3
How it was run: as §1

[8] = tested on: FM-MEL-6
How it was run: as §1

Row | SMILES | drug sensitivity score [1] | drug sensitivity score [2] | drug sensitivity score [3] | drug sensitivity score [4] | drug sensitivity score [5] | drug sensitivity score [6] | drug sensitivity score [7] | drug sensitivity score [8]
1 | COc1cc2c(NC3CCN(C(C)C)CC3)nc(N3CCC(F)(F)CC3)nc2cc1OCCCN1CCCC1 [UNC0642] | 4 | 4.5 | 4.5 | 2 | 5.1 | 4.1 | 0.7 | 2.5
2 | CC(=O)[C@]1(O)Cc2c(O)c3c(c(O)c2[C@@H](O[C@H]2C[C@H](N)[C@H](O)[C@H](C)O2)C1)C(=O)c1ccccc1C3=O [Idarubicin] | 5.4 | 15.4 | 8.4 | 8.4 | 4.8 | 9.7 | 10.9 | 8.1
3 | S=C(NCc1ccc2c(c1)OCO2)N1CCN(c2ncnc3c2oc2ccccc23)CC1 [Amuvatinib] | 3.9 | 1.2 | 0 | 0 | 6.6 | 0 | 4.9 | 0
4 | CC(C)(C)C[C@@H]1N[C@@H](C(=O)N[C@H]2CC[C@H](O)CC2)[C@H](c2cccc(Cl)c2F)[C@]12C(=O)Nc1cc(Cl)ccc12 | 2.2 | 15.9 | 3.1 | 0 | 0 | 0 | 16.6 | 0
5 | Cc1nc(C(=O)NCC(=O)O)c(O)c2ccc(Oc3ccccc3)cc12 [Roxadustat] | 0 | 0 | 0 | 0 | 2.1 | 0 | 0 | 0
6 | Nc1nc(F)nc2c1ncn2[C@@H]1O[C@H](CO)[C@@H](O)[C@@H]1O [Fludarabine] | 0 | 0 | 1.4 | 1.1 | 0 | 4.7 | 0.6 | 3.1
7 | C=CC(=O)N1CC/C(=C\c2ccc(F)c([N+](=O)[O-])c2)C(=O)/C(=C/c2ccc(F)c([N+](=O)[O-])c2)C1 [VLX1570] | 23.8 | 24 | 7.8 | 15.8 | 18.8 | 14.9 | 18.6 | 2.4
8 | Cc1cc(C)c(CNC(=O)c2cc(-c3ccc(CN4CCOCC4)cc3)cc3c2cnn3C2CCCC2)c(=O)[nH]1 [EPZ-5687] | 2.6 | 0 | 0 | 0 | 0 | 0 | 2.8 | 0.5
9 | CNC(=O)c1ccccc1Sc1ccc2c(/C=C/c3ccccn3)n[nH]c2c1 [Axitinib] | 0.1 | 4.6 | 2.1 | 0.1 | 0.1 | 0 | 2.6 | 0
10 | O=c1sn(-c2cccc3ccccc23)c(=O)n1Cc1ccccc1 [Tideglusib] | 0 | 0 | 0 | 0 | 0 | 0 | 0 | 0
11 | COc1cc2c(Nc3ccc(Cl)c(Cl)c3F)ncnc2cc1OC[C@@H]1C[C@@H]2CN(C)C[C@@H]2C1 [Tesevatinib] | 1.8 | 0.1 | 0.1 | 0.1 | 0 | 0 | 0.8 | 0.3
12 | Cc1ccc(C(=O)Nc2ccc(CN3CCN(C)CC3)c(C(F)(F)F)c2)cc1C#Cc1cnc2cccnn12 [Ponatinib] | 9.1 | 8.3 | 7.8 | 4.9 | 6.2 | 4.4 | 9.1 | 4.5
13 | CO[C@@H](C(=O)N1Cc2[nH]nc(NC(=O)c3ccc(N4CCN(C)CC4)cc3)c2C1)c1ccccc1 [Danusertib] | 10.4 | 14.5 | 0 | 5.1 | 3.2 | 1 | 1.5 | 2.9
14 | COc1cc2ncnc(Oc3cccc(NC(=O)Nc4cc(C(C)(C)C(F)(F)F)on4)c3)c2cc1OC | 0 | 0 | 7.6 | 0 | 3.3 | 0 | 15 | 2
15 | CN(C)C[C@@H]1CCn2cc(c3ccccc32)C2=C(C(=O)NC2=O)c2cn(c3ccccc23)CCO1 [Ruboxistaurin] | 4.5 | 8.6 | 7.2 | 9 | 6.7 | 4.7 | 6.5 | 7.6
16 | CNC(=O)c1cc(Oc2ccc(NC(=O)Nc3ccc(Cl)c(C(F)(F)F)c3)cc2)ccn1 [Sorafenib] | 0 | 0 | 1 | 0 | 0 | 0 | 1.4 | 0
17 | CCN(CC)CCN(Cc1ccc(-c2ccc(C(F)(F)F)cc2)cc1)C(=O)Cn1c(SCc2ccc(F)cc2)nc(=O)c2c1CCC2 [Darapladib] | 0 | 0 | 0.8 | 0.4 | 0 | 0.2 | 0 | 0.4
18 | C=CC(=O)N1CCC(Oc2cc3c(Nc4ccc(Cl)c(Cl)c4F)ncnc3cc2OC)CC1 [Poziotinib] | 2.2 | 0 | 0 | 0 | 0 | 0 | 0 | 0
19 | N#CC1(c2ccc(NC(=O)c3cccnc3NCc3ccncc3)cc2)CCCC1 [Apatinib] | 0 | 0 | 0.1 | 0 | 0 | 0 | 0 | 0
